We go through nine molecules from ChEMBL document CHEMBL1131723, “Synthesis and structure-activity relationship of novel glycylcycline derivatives leading to the discovery of GAR-936” (1999).

Holding throughout (format): functional
The test system of assay [1] is Escherichia coli. As to the kind of experiment: In vitro antibacterial activity against Escherichia coli J3272 Tet D.
Assay [2] concerns Staphylococcus aureus. The assay is described as follows: In vitro antibacterial activity against Staphylococcus aureus UBMS 90-3 sensitive.
The subject of assay [3] is Escherichia coli. The assay is described as follows: In vitro antibacterial activity against Escherichia coli UBMS 88-1 Tet B.
Assay [4] relates to Escherichia coli. As to the kind of experiment: In vitro antibacterial activity against Escherichia coli PRP1 Tet A.
In assay [5] the test system is Escherichia coli. The assay is described as follows: In vitro antibacterial activity against Escherichia coli UBMS 90-5 sensitive.
Assay [6] deals with Staphylococcus aureus. As to the kind of experiment: In vitro antibacterial activity against Staphylococcus aureus UBMS 88-7 Tet K.
The subject of assay [7] is Staphylococcus aureus. As to the kind of experiment: In vitro antibacterial activity against Staphylococcus aureus Smith sensitive.
In assay [8] the test system is Staphylococcus aureus. As to the kind of experiment: In vitro antibacterial activity against Staphylococcus aureus UBMS 90-1 Tet M.
Assay [9] relates to Escherichia coli. The assay is described as follows: In vitro antibacterial activity against Escherichia coli J3272 Tet C.
The subject of another assay is Enterococcus. As to the kind of experiment: In vitro antibacterial activity against Enterococcus ATCC 29212.
The subject of assay [10] is Escherichia coli. As to the kind of experiment: In vitro antibacterial activity against Escherichia coli UBMS 90-4 Tet M.

SMILES strings stand for the structures. Values after ≈ are worked out from the molar mass of the structure shown.

In general, MIC refers to the least concentration at which growth counts as inhibited. As to `CN(C)c1cc(NC(=O)CBr)c(O)c2c1CC1CC3[C@H](N(C)C)C(=O)C(C(N)=O)=C(O)[C@@]3(O)C(=O)C1=C2O` (stereo partly specified), the MIC was 32 µg/mL (≈ 53.9 µM) with Escherichia coli [1]; 0.5 µg/mL (≈ 0.843 µM) with Staphylococcus aureus [2]; greater than 32 µg/mL in the assay on Escherichia coli [3]; greater than 32 µg/mL in the assay on Escherichia coli [4]; 16 µg/mL (≈ 27 µM) in the assay on Escherichia coli [5]; 2 µg/mL (≈ 3.37 µM) against Staphylococcus aureus [6]. In addition, the MIC in the assay with Staphylococcus aureus [7] was 0.5 µg/mL (≈ 0.843 µM); in the assay with Staphylococcus aureus [8], 1 µg/mL (≈ 1.69 µM); in the assay on Escherichia coli [9], greater than 32 µg/mL; against Enterococcus it was 0.5 µg/mL (≈ 0.843 µM).

As for `CN(C)c1cc(NC(=O)CN2CCCC2)c(O)c2c1CC1CC3[C@H](N(C)C)C(=O)C(C(N)=O)=C(O)[C@@]3(O)C(=O)C1=C2O` (stereo partly specified), the MIC in the assay on Escherichia coli [1] stood at 0.12 µg/mL (≈ 0.206 µM); against Escherichia coli [10], 0.25 µg/mL (≈ 0.428 µM); in the assay on Staphylococcus aureus [2], 0.12 µg/mL (≈ 0.206 µM); with Escherichia coli [3], 0.25 µg/mL (≈ 0.428 µM); in the assay with Escherichia coli [4], 0.5 µg/mL (≈ 0.857 µM); in the assay with Escherichia coli [5], 0.25 µg/mL (≈ 0.428 µM). Moreover, the minimum inhibitory concentration (MIC) amounted to 0.5 µg/mL (≈ 0.857 µM) in the assay on Staphylococcus aureus [6]; 0.12 µg/mL (≈ 0.206 µM) in the assay with Staphylococcus aureus [7]; 0.12 µg/mL (≈ 0.206 µM) in the assay on Staphylococcus aureus [8]; 0.25 µg/mL (≈ 0.428 µM) in the assay with Escherichia coli [9]; 0.12 µg/mL (≈ 0.206 µM) against Enterococcus.

In the case of `CNCC(=O)Nc1cc(N(C)C)c2c(c1O)C(=O)C1=C(O)[C@]3(O)C(O)=C(C(N)=O)C(=O)[C@@H](N(C)C)C3CC1C2` (stereo partly specified), the MIC in the assay with Escherichia coli [1] was found to be 0.5 µg/mL (≈ 0.92 µM); with Staphylococcus aureus [2], 0.5 µg/mL (≈ 0.92 µM); against Escherichia coli [3] it was 1 µg/mL (≈ 1.84 µM); against Escherichia coli [4] it was 16 µg/mL (≈ 29.4 µM); with Escherichia coli [5] it was 1 µg/mL (≈ 1.84 µM); against Staphylococcus aureus [6], 16 µg/mL (≈ 29.4 µM). In addition, the MIC against Staphylococcus aureus [7] came out at 0.5 µg/mL (≈ 0.92 µM); in the assay with Staphylococcus aureus [8] it was 1 µg/mL (≈ 1.84 µM); with Escherichia coli [9], 8 µg/mL (≈ 14.7 µM); with Enterococcus it was 0.5 µg/mL (≈ 0.92 µM).

Take `CN(C)CC(=O)Nc1cc(N(C)C)c2c(c1O)C(=O)C1=C(O)[C@]3(O)C(O)=C(C(N)=O)C(=O)[C@@H](N(C)C)C3CC1C2` (stereo partly specified): the MIC against Escherichia coli [1] turned out to be 0.12 µg/mL (≈ 0.215 µM); in the assay on Escherichia coli [10], 0.25 µg/mL (≈ 0.448 µM); with Staphylococcus aureus [2] it was 0.03 µg/mL (≈ 0.0538 µM); with Escherichia coli [3] it was 0.25 µg/mL (≈ 0.448 µM); against Escherichia coli [4], 1 µg/mL (≈ 1.79 µM); with Escherichia coli [5] it was 0.25 µg/mL (≈ 0.448 µM). Further, the MIC in the assay with Staphylococcus aureus [6] was found to be 0.25 µg/mL (≈ 0.448 µM); in the assay with Staphylococcus aureus [7], 0.06 µg/mL (≈ 0.108 µM); with Staphylococcus aureus [8], 0.25 µg/mL (≈ 0.448 µM); in the assay with Escherichia coli [9], 1 µg/mL (≈ 1.79 µM); against Enterococcus, 0.06 µg/mL (≈ 0.108 µM).

As for `CN(C)c1cc(NC(=O)CN2CCOCC2)c(O)c2c1CC1CC3[C@H](N(C)C)C(=O)C(C(N)=O)=C(O)[C@@]3(O)C(=O)C1=C2O` (stereo partly specified), the MIC was 32 µg/mL (≈ 53.4 µM) against Escherichia coli [1]; 2 µg/mL (≈ 3.34 µM) with Staphylococcus aureus [2]; greater than 32 µg/mL against Escherichia coli [3]; greater than 32 µg/mL in the assay on Escherichia coli [4]; greater than 32 µg/mL with Escherichia coli [5]; 32 µg/mL (≈ 53.4 µM) in the assay with Staphylococcus aureus [6]. In addition, the MIC with Staphylococcus aureus [7] is 2 µg/mL (≈ 3.34 µM); with Staphylococcus aureus [8], 4 µg/mL (≈ 6.67 µM); with Escherichia coli [9], greater than 32 µg/mL; with Enterococcus it was 2 µg/mL (≈ 3.34 µM).

Turning to `CN(C)c1cc(NC(=O)Cn2ccnc2)c(O)c2c1CC1CC3[C@H](N(C)C)C(=O)C(C(N)=O)=C(O)[C@@]3(O)C(=O)C1=C2O` (stereo partly specified), the MIC is 32 µg/mL (≈ 55.1 µM) in the assay on Escherichia coli [1]; greater than 32 µg/mL in the assay on Escherichia coli [10]; 4 µg/mL (≈ 6.89 µM) against Staphylococcus aureus [2]; greater than 32 µg/mL in the assay on Escherichia coli [3]; greater than 32 µg/mL against Escherichia coli [4]; greater than 32 µg/mL with Escherichia coli [5]. In addition, the MIC was 32 µg/mL (≈ 55.1 µM) in the assay on Staphylococcus aureus [6]; 4 µg/mL (≈ 6.89 µM) against Staphylococcus aureus [7]; 32 µg/mL (≈ 55.1 µM) against Staphylococcus aureus [8]; greater than 32 µg/mL in the assay with Escherichia coli [9]; 4 µg/mL (≈ 6.89 µM) with Enterococcus.

Turning to `CN(C)c1cc(NC(=O)CN2CCC2)c(O)c2c1CC1CC3[C@H](N(C)C)C(=O)C(C(N)=O)=C(O)[C@@]3(O)C(=O)C1=C2O` (stereo partly specified), the MIC against Escherichia coli [1] was found to be 0.12 µg/mL (≈ 0.211 µM); against Escherichia coli [10], 0.25 µg/mL (≈ 0.439 µM); with Staphylococcus aureus [2] it was 0.12 µg/mL (≈ 0.211 µM); with Escherichia coli [3], 0.5 µg/mL (≈ 0.878 µM); with Escherichia coli [4], 1 µg/mL (≈ 1.76 µM); in the assay with Escherichia coli [5], 0.25 µg/mL (≈ 0.439 µM). For the same molecule, the MIC turned out to be 2 µg/mL (≈ 3.51 µM) with Staphylococcus aureus [6]; 0.25 µg/mL (≈ 0.439 µM) in the assay on Staphylococcus aureus [7]; 0.25 µg/mL (≈ 0.439 µM) in the assay on Staphylococcus aureus [8]; 0.5 µg/mL (≈ 0.878 µM) against Escherichia coli [9]; 0.25 µg/mL (≈ 0.439 µM) against Enterococcus.

Take `CN(C)c1cc(NC(=O)CNC2CCCC2)c(O)c2c1CC1CC3[C@H](N(C)C)C(=O)C(C(N)=O)=C(O)[C@@]3(O)C(=O)C1=C2O` (stereo partly specified): the MIC was determined as 0.12 µg/mL (≈ 0.201 µM) in the assay on Escherichia coli [1]; 0.25 µg/mL (≈ 0.418 µM) in the assay on Escherichia coli [10]; 0.12 µg/mL (≈ 0.201 µM) in the assay on Staphylococcus aureus [2]; 0.25 µg/mL (≈ 0.418 µM) against Escherichia coli [3]; 1 µg/mL (≈ 1.67 µM) against Escherichia coli [4]; 0.25 µg/mL (≈ 0.418 µM) against Escherichia coli [5]. Moreover, the MIC was 2 µg/mL (≈ 3.35 µM) in the assay on Staphylococcus aureus [6]; 0.25 µg/mL (≈ 0.418 µM) with Staphylococcus aureus [7]; 0.25 µg/mL (≈ 0.418 µM) in the assay with Staphylococcus aureus [8]; 0.25 µg/mL (≈ 0.418 µM) in the assay with Escherichia coli [9]; 0.12 µg/mL (≈ 0.201 µM) in the assay on Enterococcus.

On to `CCCNCC(=O)Nc1cc(N(C)C)c2c(c1O)C(=O)C1=C(O)[C@]3(O)C(O)=C(C(N)=O)C(=O)[C@@H](N(C)C)C3CC1C2` (stereo partly specified), for which the MIC was determined as 0.12 µg/mL (≈ 0.21 µM) against Escherichia coli [1]; 0.25 µg/mL (≈ 0.437 µM) in the assay with Escherichia coli [10]; 0.25 µg/mL (≈ 0.437 µM) in the assay with Staphylococcus aureus [2]; 0.5 µg/mL (≈ 0.875 µM) with Escherichia coli [3]; 2 µg/mL (≈ 3.5 µM) with Escherichia coli [4]; 0.5 µg/mL (≈ 0.875 µM) against Escherichia coli [5]. Also, the MIC came out at 2 µg/mL (≈ 3.5 µM) against Staphylococcus aureus [6]; 0.25 µg/mL (≈ 0.437 µM) in the assay with Staphylococcus aureus [7]; 0.5 µg/mL (≈ 0.875 µM) with Staphylococcus aureus [8]; 0.5 µg/mL (≈ 0.875 µM) in the assay on Escherichia coli [9]; 0.25 µg/mL (≈ 0.437 µM) against Enterococcus.
